Laboratory results published in ChEMBL document CHEMBL3627643, “Synthesis of stereochemically diverse cyclic analogs of tubulysins” (Bioorg Med Chem, 2015).

biological target: Tubulin (Sus scrofa) (UniProt P02554+P02550); assay: Inhibition of pig tubulin polymerization at 5 uM incubated for 20 mins at 37 degC by fluorescence based tubulin polymerization inhibition assay; type: protein assay
Sequence (P02550 whole entry, looked up): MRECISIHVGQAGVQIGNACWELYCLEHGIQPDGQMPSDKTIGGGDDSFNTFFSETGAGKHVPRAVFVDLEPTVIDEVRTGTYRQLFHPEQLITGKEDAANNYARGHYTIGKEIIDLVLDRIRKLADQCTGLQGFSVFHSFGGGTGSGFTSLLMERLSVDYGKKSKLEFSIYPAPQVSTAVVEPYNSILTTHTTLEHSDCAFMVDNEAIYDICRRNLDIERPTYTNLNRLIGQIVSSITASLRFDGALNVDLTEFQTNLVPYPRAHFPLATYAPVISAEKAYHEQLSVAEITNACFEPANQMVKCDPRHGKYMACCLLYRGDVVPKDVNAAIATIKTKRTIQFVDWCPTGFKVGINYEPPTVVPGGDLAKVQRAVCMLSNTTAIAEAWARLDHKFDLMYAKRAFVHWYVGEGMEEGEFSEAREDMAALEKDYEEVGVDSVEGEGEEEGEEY
Sequence (P02554 whole entry, looked up): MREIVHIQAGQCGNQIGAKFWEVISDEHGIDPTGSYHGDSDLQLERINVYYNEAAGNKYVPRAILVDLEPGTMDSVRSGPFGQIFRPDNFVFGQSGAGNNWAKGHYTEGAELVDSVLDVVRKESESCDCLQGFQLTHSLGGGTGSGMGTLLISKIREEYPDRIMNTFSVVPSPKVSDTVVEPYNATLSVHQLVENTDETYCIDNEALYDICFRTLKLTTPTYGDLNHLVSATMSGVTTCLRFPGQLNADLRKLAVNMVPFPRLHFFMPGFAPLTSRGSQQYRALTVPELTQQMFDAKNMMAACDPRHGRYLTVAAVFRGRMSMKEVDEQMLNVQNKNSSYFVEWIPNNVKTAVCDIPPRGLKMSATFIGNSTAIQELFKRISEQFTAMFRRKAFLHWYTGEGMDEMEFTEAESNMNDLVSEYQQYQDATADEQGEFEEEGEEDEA

SMILES	inhibition [%]
CC[C@H](C)[C@H](NC(=O)[C@H]1CCCCN1C)C(=O)N(C)[C@H]1CCO[C@@H](c2nc(C(=O)NCCc3ccccn3)cs2)C1	20.2
CC[C@H](C)[C@H](NC(=O)[C@H]1CCCCN1C)C(=O)N[C@H]1CCO[C@H](c2nc(C(=O)NC(C)C)cs2)C1	8.73
CC[C@H](C)[C@H](NC(=O)[C@H]1CCCCN1C)C(=O)N[C@H]1CCO[C@@H](c2nc(C(=O)NC(C)C)cs2)C1	5.35
CC[C@]1(O)C[C@@H]2CN(CCc3c([nH]c4ccccc34)[C@@](C(=O)OC)(c3cc4c(cc3OC)N(C)[C@H]3[C@@](O)(C(=O)OC)[C@H](OC(C)=O)[C@]5(CC)C=CCN6CC[C@]43[C@@H]65)C2)C1	73.9
CC[C@@H](C)[C@H](NC(=O)[C@H]1CCCCN1C)C(=O)N(COC(=O)CC(C)C)[C@H](C[C@@H](OC(C)=O)c1nc(C(=O)N[C@@H](Cc2ccc(O)cc2)C[C@H](C)C(=O)O)cs1)C(C)C	72.6
CC[C@H](C)[C@H](NC(=O)[C@H]1CCCCN1C)C(=O)N(C)[C@H]1CCO[C@@H](c2nc(C(=O)NC(C)C)cs2)C1	15.5
CC[C@H](C)[C@H](N)C(=O)N[C@H]1CCO[C@@H](c2nc(C(=O)NC(C)C)cs2)C1	10.6
CC[C@H](C)[C@H](NC(=O)[C@H]1CCCCN1C)C(=O)N[C@@H]1CCO[C@H](c2nc(C(=O)NC(C)C)cs2)C1	1.45
CC[C@H](C)[C@H](NC(=O)CN(C)C)C(=O)N[C@H]1CCO[C@@H](c2nc(C(=O)NC(C)C)cs2)C1	12.9
CC[C@H](C)[C@H](NC(=O)[C@H]1CCCCN1C)C(=O)N(C)[C@H]1CCO[C@@H](c2nc(C(=O)NCCOC)cs2)C1	10.6
CC[C@H](C)[C@H](NC(=O)[C@H]1CCCCN1C)C(=O)N(C)[C@H]1CCO[C@@H](c2nc(C(=O)NCCN3CCOCC3)cs2)C1	7.46
CC[C@H](C)[C@H](NC(=O)[C@H]1CCCCN1C)C(=O)N[C@@H]1CCO[C@@H](c2nc(C(=O)NC(C)C)cs2)C1	3.9

The remaining lines, values ahead:

inhibition [%]	SMILES
19.9	CC[C@H](C)[C@H](NC(=O)CN(C)C)C(=O)N[C@H]1CCO[C@@H](c2nc(C(=O)NCCc3ccccc3)cs2)C1
5.87	CC[C@H](C)[C@H](NC(=O)[C@H]1CCCCN1C)C(=O)N(C)[C@H]1CCO[C@@H](c2nc(C(=O)NCCc3ccccc3)cs2)C1
10.2	CC[C@H](C)[C@H](NC(=O)[C@H]1CCCCN1C)C(=O)N(C)[C@H]1CCO[C@@H](c2nc(C(=O)NCc3ccccc3)cs2)C1
5.61	CC[C@H](C)[C@H](NC(=O)[C@H]1CCCCN1C)C(=O)N[C@H]1CCO[C@H](c2nc(C(=O)NCCc3ccccc3)cs2)C1
8.52	CC[C@H](C)[C@H](N)C(=O)N[C@H]1CCO[C@@H](c2nc(C(=O)NCCc3ccccc3)cs2)C1
15.8	CC[C@H](C)[C@@H](C(=O)N[C@H]1CCO[C@@H](c2nc(C(=O)NCCc3ccccc3)cs2)C1)N(C)C
2.23	CC[C@H](C)[C@H](NC(=O)[C@H]1CCCCN1C)C(=O)N[C@@H]1CCO[C@@H](c2nc(C(=O)NCCc3ccccc3)cs2)C1
1.62	CC[C@H](C)[C@H](NC(=O)[C@H]1CCCCN1C)C(=O)N[C@H]1CCO[C@@H](c2nc(C(=O)NCCc3ccccc3)cs2)C1
3.76	CC[C@H](C)[C@H](NC(=O)[C@H]1CCCCN1C)C(=O)N[C@@H]1CCO[C@H](c2nc(C(=O)NCCc3ccccc3)cs2)C1
16.9	CC[C@H](C)[C@@H](C(=O)N[C@H]1CCO[C@@H](c2nc(C(=O)NC(C)C)cs2)C1)N(C)C
